Reference: patent publication US20190060284A1, “PHARMACOLOGICAL MODULATORS OF NAV1.1 VOLTAGE-GATED SODIUM CHANNELS ASSOCIATED WITH MECHANICAL PAIN” (priority 2016, published 2019)
“Also recorded” adds a separate entry of the source. Read-outs that look alike come from different tables or passages of the source.

Legend:
[1] = test system: splanchnic colonic afferents (high-threshold mechanoreceptors); experiment: Ex vivo gut-nerve single-unit recordings; format: cell-based, mouse; details: for mechanosensitivity of colonic nociceptors: Compound B 100 μM; for Hm1a-induced mechanical hypersensitivity in the presence of the blocker: Hm1a 100 nM, ICA 500 nM or Compound B 100 μM
Description: In vitro single-unit extracellular recordings of action potential discharge were made from splanchnic colonic afferents. Recordings were made from healthy or CVH mice using standard protocols^61-63. Baseline mechanosensitivity was determined in response to application of a 2 g von frey hair (vfh) probe to the afferent receptive field for 3 seconds. This process was repeated 3-4 times, separated each time by 10 seconds. Mechanosensitivity was then re-tested after the application of Hm1a (100 nM) or the Nav1.1 blocker ICA-121432 (500 nM) or a combination of both ICA-121432 (500 nM) and Hm1a (100 nM). Data are presented as spikes/s and are expressed as mean±SEM.
Colitis was induced by administration of TNBS as described previously^62,63. Briefly, 13 week old anaesthetized mice were administered an intra-colonic enema of 0.1 mL TNBS (130 μg/mL in 30% EtOH) via a polyethylene catheter^62,63,66. Histological examination of mucosal architecture, cellular infiltrate, crypt abscesses, and goblet cell depletion confirmed significant TNBS-induced damage by day 3 post-treatment, which largely recovered by day 7, and fully recovered by 28 days. […] As such, they are termed ‘chronic visceral hypersensitivity’ (CVH) mice^62,63,66,68.
Ex vivo single-unit extracellular recordings of action potential discharge were made from splanchnic colonic afferents. Recordings were made from healthy or CVH mice using standard protocols (e.g. Brierley, S. M., Jones, R. C., III, Gebhart, G. F. & Blackshaw, L. A. Splanchnic and pelvic mechanosensory afferents signal different qualities of colonic stimuli in mice. Gastroenterology 127, 166-178 (2004)). Baseline mechanosensitivity was determined in response to application of a 2-g Von Frey hair probe to the afferent receptive field for 3 s. This process was repeated 3-4 times, separated each time by 10 s. Mechanosensitivity was then re-tested after the application of Hm1a (100 nM) or the Nav1.1 blocker compound B (100 μM) or a combination thereof. Instantaneous frequency is defined as the inverse of the time interval between an action potential and the previous action potential. Group data are presented as spikes per second and are expressed as mean±s.e.m.

[2] = test system: NTG induced mechanical allodynia; experiment: NTG-induced hind paw mechanical allodynia (migraine model); format: in vivo, mouse; details: for allodynia threshold compared to baseline threshold: 75 and 120 min
Description: NTG-induced hind paw mechanical allodynia. Mechanical thresholds were determined with von Frey monofilaments (VFF; eight filaments, range 0.008-2 g, Stoelting Co) using the Dixon up-and-down method^51. For drug testing, 48 naive C57Bl/6 male mice (20-30 g) were divided randomly to the following groups (n=12 mice per group): Vehicle/Cyclodextrin, Vehicle/Compound B 75 mg/kg, NTG/Cyclodextrin, and NTG/Compound B 75 mg/kg. Prior to testing all animals were handled for 1 week in the behavior room during mid-morning using the cupped hand technique^52. On each testing day, a maximum of 12 animals was used, divided equally into the four groups. Mice were confined in clear acrylic cages (8.7″×8.7″×5″) divided into four chambers, each on a raised wire mesh platform that allowed full access to the tested paws. Mice were acclimated for two hours, on the day of testing and one day prior. Mechanical thresholds were evaluated before (baseline), and 75 and 120 min after i.p. administration of 10 mg/kg NTG (or vehicle), in accordance with NTG's time-to-peak-effect (TPE) in this model (data not shown). 40% Cyclodextrin in saline or 75 mg/kg Compound B dissolved in 40% cyclodextrin in saline, was administered contralateral to NTG administration thirty minutes before the first post-NTG time point, in accordance with compound B's TPE. Each filament was applied perpendicular to the center of each of the hind paw five times, spaced 1 sec apart, starting with the middle VFF (0.4 g). In the absence of a response, the next VFF in the series was applied until a response was witnessed. Response to VFF was recorded as an immediate withdrawal of the tested hind paw to the applied stimulus, with or without an observed licking behavior. The withdrawal threshold was quantified as the mean of both hind paws. The experimenter was blind to the treatment group.

[3] = test system: cultured somatosensory neurons (TG, DRG); experiment: Ratiometric calcium imaging of cultured sensory neurons; format: cell-based, mice or rats
[4] = test system: mechanical response thresholds; experiment: Von Frey mechanical response thresholds after intraplantar toxin; format: in vivo, mouse; details: 500 nM in 10 μl intraplantar, WT mice, 30 minutes after injection
Description: For behavioral experiments in FIG. 4, adult mice (6-12 weeks) were used. Male and female mice were first considered separately in hindpaw nocifensive response experiments. […] Therefore, male and female behavioral responses were pooled and subsequent experiments were performed on both male and female mice for CKO and WT littermate experiments, or only male mice for other conditions (e.g. Cap ablation). Nocifensive responses were recorded during a 20 minute observation period immediately following intraplantar injections (10 μl PBS with or without 5 μM Hm1a). Licking/biting behavior was scored as seconds of behavior with the experimenter blinded to injection condition and experimental cohort (WT, CKO or Cap Ablated mice). Hargreaves and Von Frey tests were performed 30 minutes after intraplantar injection of 500 nM Hm1a or Hm1b. I.t. cap ablation was performed as previously described^34, and i.t. cap treated mice were tested on a hot plate to ensure ablation of TRPV1+afferents. Ablation was also confirmed by histology.

[5] = Hm1a-sensitive P0 mouse TG neurons

`Cc1c(C(N)=O)nnn1Cc1ccccc1` [Compound B] was tested, and the “mechanosensitivity of colonic nociceptors” value (from here on “mechanosensitivity”) ([1]; CVH mice, ICA-121431 500 nM) was “reduced mechanosensitivity in a sub-population; also recorded: inhibition of mechanosensitivity of a subpopulation”, the “Hm1a-induced mechanical hypersensitivity in the presence of the blocker” value (“Hm1a-induced mechanical hypersensitivity” for short) ([1]; CVH mice) was “not affected by the presence of Hm1a; also recorded: prevents Hm1a-induced potentiation” and the “mechanosensitivity” value ([1]; healthy mice) was “inhibits the mechanosensitivity; also recorded: inhibition of mechanosensitivity of a subpopulation”. The “Hm1a-induced mechanical hypersensitivity” value ([1]; healthy mice) was “inhibits the sensitizing effect of Hm1a toxin; also recorded: prevents Hm1a-induced potentiation”, the “NTG induced tactile allodynia” value ([2]; Compound B 75 mg/kg in 40% cyclodextrin in saline) was “able to reverse NTG induced tactile allodynia” and the “allodynia threshold compared to baseline threshold” value ([2]; NTG 10 mg/kg i.p. + Compound B 75 mg/kg) was “no significant difference”. The “allodynia threshold compared to baseline threshold” value ([2]; Vehicle + Compound B 75 mg/kg) was “no significant difference”.
For `O=C(Nc1ccc(S(=O)(=O)Nc2nccs2)cc1)C(c1ccccc1)c1ccccc1` [ICA-121431], the Hm1a-evoked calcium responses ([3]; blocker 500 nM, Hm1a 500 nM, embryonic DRG and P0 mouse TG cultures) was “greatly diminishes”, the “responses to SGTx1” value ([3]; in presence of ICA-121431) was “only partially blocks” and the “CVH sensitized fibers with reduced mechanosensory responses” value ([1]; CVH mice, blocker 500 nM) was 70%. For the same molecule, the “subpopulation of CVH colonic afferents inhibited (inhibited/fibers)” value ([1]; CVH mice, blocker 500 nM) was 7/10, the “mechanosensitivity” value ([1]; CVH mice, ICA-121431 500 nM) was “levels resembling those of baseline controls” and the “Hm1a-induced mechanical hypersensitivity” value ([1]; CVH mice) was “blocks the sensitizing effects of Hm1a”. The “Hm1a-induced mechanical hypersensitivity” value ([1]; CVH mice, listed as ICA-121432) was “failed to induce mechanical hypersensitivity”, the “fibers in which mechanical responses are reduced and Hm1a sensitization blocked” value ([1]; healthy mice, blocker 500 nM) was 50% and the “population of colonic afferents inhibited (inhibited/fibers)” value ([1]; healthy mice, blocker 500 nM) was 5/10. For the same molecule, the “Hm1a-induced mechanical hypersensitivity” value ([1]; healthy mice) was “blocks Hm1a sensitization” and the “Hm1a-induced mechanical hypersensitivity” value ([1]; healthy mice, listed as ICA-121432) was “failed to induce mechanical hypersensitivity”.
With `NC1=N[C@H](O)[C@H]2[C@H]3O[C@]4(O)O[C@@H]([C@@H](O)[C@@]2(N1)[C@@H]4O)[C@]3(O)CO` [Tetrodotoxin] the Hm1a-evoked calcium responses [3] was “blocked”.
With `COc1cc(CNC(=O)CCCC/C=C/C(C)C)ccc1O` [capsaicin] the “toxin-sensitive P0 neurons that respond to the agonist (in words)” value [3, 5] was “only a third”.
For `NC(N)=NC(N)=Nc1cccc(Cl)c1` [mCPBG], the “toxin-sensitive cells that also respond to the agonist” value [3, 5] was 52%.
For `CC1CCC(C(C)C)C(O)C1` (centres unmarked) [menthol], the “toxin-sensitive cells that also respond to the agonist” value [3] was 38%.
`C=CCN=C=S` [mustard oil] was tested, and the “toxin-sensitive cells that also respond to the agonist” value [3, 5] was less than 13%.
`CCCCC[C@H](O)/C=C/[C@H]1[C@H](O)CC(=O)[C@@H]1C/C=C\CCCC(=O)O` [prostaglandin E2] was tested, and the “percentage of toxin sensitive cells” value ([3]; sensitization of adult neurons prior to toxin exposure) was “greatly enhances”.
For SGTx1, the “cohort of neurons excited compared with Hm1a” value ([3]; TG and embryonic DRG neurons) was “excites a larger cohort of TG and embryonic DRG neurons than Hm1a”.
δ-theraphotoxin-Hm1b was tested, and the “sensitization to mechanical stimulation” value [4] was “Equivalent mechanical sensitization”.
